Experimental data taken from the kinase profiling compilation of Christmann-Franck et al. (2016).
Blank lines part the entries; values can stand above or below the molecule they belong to.

Experiments:
Test in all cases: radiometric filter-binding kinase assay, Kinase HotSpot
Conditions in all cases: compound 0.5 µM; ATP 10 µM
SRPK1 (human) = SRPK1 (human) (UniProt Q96SB4)
NUAK1 (human) = NUAK1 (human) (UniProt O60285)
AURKB (human) = AURKB (human) (UniProt Q96GD4)
CAMK2G (human) = CAMK2G (human) (UniProt Q13555)
MAPKAPK5 (human) = MAPKAPK5 (human) (UniProt Q8IW41)
PTK2 (human) = PTK2 (human) (UniProt Q05397)
JAK2 JH1 JH2 (human) = JAK2 JH1 JH2 (human) (UniProt O60674)
EPHA4 (human) = EPHA4 (human) (UniProt P54764)
EPHA4 (human), sequence (P54764 whole entry, looked up): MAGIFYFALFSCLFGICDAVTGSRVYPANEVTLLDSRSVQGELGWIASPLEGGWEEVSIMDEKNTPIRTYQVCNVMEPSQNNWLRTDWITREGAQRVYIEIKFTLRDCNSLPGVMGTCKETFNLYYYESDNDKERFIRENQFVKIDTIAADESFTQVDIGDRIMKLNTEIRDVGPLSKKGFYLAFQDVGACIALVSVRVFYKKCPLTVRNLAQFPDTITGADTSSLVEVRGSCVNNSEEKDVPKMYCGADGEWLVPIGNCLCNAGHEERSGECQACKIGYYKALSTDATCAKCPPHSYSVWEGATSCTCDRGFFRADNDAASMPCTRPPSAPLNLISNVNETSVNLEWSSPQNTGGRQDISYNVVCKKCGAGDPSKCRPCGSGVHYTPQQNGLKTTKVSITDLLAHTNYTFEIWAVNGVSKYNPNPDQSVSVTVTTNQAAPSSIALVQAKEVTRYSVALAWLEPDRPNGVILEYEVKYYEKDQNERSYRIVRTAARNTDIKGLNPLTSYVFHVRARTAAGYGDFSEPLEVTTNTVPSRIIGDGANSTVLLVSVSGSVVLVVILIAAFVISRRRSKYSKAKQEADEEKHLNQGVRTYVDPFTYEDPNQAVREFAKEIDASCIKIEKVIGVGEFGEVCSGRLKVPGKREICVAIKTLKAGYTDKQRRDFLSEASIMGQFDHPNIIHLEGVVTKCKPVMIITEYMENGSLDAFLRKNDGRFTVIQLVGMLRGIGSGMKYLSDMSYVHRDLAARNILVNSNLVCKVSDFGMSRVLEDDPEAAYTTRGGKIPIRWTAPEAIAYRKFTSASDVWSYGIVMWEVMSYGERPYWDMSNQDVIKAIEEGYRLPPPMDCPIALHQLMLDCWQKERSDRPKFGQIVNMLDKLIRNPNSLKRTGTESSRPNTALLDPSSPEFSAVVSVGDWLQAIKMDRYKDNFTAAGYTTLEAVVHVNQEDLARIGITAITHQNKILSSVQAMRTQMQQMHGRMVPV

HIPK2 (human) = HIPK2 (human) (UniProt Q9H2X6)
INSRR (human) = INSRR (human) (UniProt P14616)
MAPK12 (human) = MAPK12 (human) (UniProt P53778)
ITK (human) = ITK (human) (UniProt Q08881)
MAPKAPK3 (human) = MAPKAPK3 (human) (UniProt Q16644)
STK10 (human) = STK10 (human) (UniProt O94804)
ERBB4 (human) = ERBB4 (human) (UniProt Q15303)
DYRK3 (human) = DYRK3 (human) (UniProt O43781)
AXL (human) = AXL (human) (UniProt P30530)
CDK7 CCNH MNAT1 (human) = CDK7 CCNH MNAT1 (human) (UniProt P50613+P51948+P51946)
CSNK1G1 (human) = CSNK1G1 (human) (UniProt Q9HCP0)
MAP2K2 (human) = MAP2K2 (human) (UniProt P36507)
WNK3 (human) = WNK3 (human) (UniProt Q9BYP7)
PRKCE (human) = PRKCE (human) (UniProt Q02156)
EPHB4 (human) = EPHB4 (human) (UniProt P54760)
SGK3 (human) = SGK3 (human) (UniProt Q96BR1)
MAPK3 (human) = MAPK3 (human) (UniProt P27361)
MAPK3 (human), sequence (P27361 whole entry, looked up): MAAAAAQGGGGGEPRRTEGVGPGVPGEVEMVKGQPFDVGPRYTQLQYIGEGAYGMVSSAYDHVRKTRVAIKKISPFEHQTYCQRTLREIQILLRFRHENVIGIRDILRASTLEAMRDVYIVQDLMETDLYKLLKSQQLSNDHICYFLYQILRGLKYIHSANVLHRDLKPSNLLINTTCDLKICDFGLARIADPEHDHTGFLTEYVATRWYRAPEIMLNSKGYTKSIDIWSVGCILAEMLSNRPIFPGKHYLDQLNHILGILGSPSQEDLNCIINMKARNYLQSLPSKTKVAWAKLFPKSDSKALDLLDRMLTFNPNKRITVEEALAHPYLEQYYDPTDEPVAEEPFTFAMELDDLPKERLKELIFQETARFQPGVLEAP

AKT2 (human) = AKT2 (human) (UniProt P31751)
PDPK1 (human) = PDPK1 (human) (UniProt O15530)
PASK (human) = PASK (human) (UniProt Q96RG2)
NUAK2 (human) = NUAK2 (human) (UniProt Q9H093)
PTK2B (human) = PTK2B (human) (UniProt Q14289)
PRKACA (human) = PRKACA (human) (UniProt P17612)
PKN1 (human) = PKN1 (human) (UniProt Q16512)
PKN2 (human) = PKN2 (human) (UniProt Q16513)
PDGFRA (human) = PDGFRA (human) (UniProt P16234)
EPHB1 (human) = EPHB1 (human) (UniProt P54762)
EPHB1 (human), sequence (P54762 whole entry, looked up): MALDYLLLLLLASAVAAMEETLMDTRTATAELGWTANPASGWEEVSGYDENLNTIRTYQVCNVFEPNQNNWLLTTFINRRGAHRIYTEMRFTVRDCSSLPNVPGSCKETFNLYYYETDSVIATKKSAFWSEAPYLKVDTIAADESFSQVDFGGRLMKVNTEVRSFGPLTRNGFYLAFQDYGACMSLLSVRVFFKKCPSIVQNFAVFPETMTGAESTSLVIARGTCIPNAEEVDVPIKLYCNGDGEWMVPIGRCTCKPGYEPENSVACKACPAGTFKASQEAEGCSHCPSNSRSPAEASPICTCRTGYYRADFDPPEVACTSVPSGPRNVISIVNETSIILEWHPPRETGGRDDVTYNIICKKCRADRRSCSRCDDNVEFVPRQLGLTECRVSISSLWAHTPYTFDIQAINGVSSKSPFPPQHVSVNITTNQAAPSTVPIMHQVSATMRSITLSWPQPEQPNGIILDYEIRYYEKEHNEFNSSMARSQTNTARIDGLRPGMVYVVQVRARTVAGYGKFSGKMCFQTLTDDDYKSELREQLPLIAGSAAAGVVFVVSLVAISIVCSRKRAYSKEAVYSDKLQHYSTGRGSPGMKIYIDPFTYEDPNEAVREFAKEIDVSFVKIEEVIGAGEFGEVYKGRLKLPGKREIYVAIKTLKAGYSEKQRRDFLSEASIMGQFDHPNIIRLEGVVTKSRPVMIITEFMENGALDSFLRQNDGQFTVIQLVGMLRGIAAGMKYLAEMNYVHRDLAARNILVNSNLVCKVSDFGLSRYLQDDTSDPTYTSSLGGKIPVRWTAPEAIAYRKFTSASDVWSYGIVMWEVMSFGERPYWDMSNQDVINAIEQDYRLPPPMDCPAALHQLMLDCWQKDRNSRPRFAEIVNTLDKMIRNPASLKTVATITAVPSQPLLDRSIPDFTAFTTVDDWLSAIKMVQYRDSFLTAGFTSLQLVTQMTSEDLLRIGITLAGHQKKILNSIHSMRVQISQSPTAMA

MERTK (human) = MERTK (human) (UniProt Q12866)
MERTK (human), sequence (Q12866 whole entry, looked up): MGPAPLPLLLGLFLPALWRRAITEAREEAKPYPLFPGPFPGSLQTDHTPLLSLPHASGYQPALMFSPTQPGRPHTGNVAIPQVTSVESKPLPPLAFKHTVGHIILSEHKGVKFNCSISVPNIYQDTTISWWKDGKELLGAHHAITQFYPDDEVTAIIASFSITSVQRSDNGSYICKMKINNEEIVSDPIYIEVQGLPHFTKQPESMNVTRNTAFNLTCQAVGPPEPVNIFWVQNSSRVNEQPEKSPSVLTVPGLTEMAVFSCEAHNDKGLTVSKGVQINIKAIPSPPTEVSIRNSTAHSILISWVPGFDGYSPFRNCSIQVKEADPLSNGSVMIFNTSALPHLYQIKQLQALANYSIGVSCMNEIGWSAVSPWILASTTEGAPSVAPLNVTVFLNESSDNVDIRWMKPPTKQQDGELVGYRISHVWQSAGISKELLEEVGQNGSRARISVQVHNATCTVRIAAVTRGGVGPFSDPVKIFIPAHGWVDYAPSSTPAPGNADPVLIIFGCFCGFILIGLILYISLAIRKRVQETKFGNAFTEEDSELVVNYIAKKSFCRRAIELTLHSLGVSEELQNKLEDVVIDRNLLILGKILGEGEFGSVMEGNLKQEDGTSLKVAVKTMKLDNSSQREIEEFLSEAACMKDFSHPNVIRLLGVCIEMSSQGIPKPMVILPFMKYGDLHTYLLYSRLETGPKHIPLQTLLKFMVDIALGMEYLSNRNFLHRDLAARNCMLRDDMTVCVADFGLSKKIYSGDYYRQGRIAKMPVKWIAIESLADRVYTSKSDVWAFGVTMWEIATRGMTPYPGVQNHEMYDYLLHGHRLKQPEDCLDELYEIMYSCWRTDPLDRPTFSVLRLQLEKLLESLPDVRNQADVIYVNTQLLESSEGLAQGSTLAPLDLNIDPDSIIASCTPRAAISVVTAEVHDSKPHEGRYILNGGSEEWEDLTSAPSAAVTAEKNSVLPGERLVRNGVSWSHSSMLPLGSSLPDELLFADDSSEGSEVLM

MLTK (human) = MLTK (human) (UniProt Q9NYL2)
PAK2 (human) = PAK2 (human) (UniProt Q13177)
PHKG2 (human) = PHKG2 (human) (UniProt P15735)
PHKG2 (human), sequence (P15735 whole entry, looked up): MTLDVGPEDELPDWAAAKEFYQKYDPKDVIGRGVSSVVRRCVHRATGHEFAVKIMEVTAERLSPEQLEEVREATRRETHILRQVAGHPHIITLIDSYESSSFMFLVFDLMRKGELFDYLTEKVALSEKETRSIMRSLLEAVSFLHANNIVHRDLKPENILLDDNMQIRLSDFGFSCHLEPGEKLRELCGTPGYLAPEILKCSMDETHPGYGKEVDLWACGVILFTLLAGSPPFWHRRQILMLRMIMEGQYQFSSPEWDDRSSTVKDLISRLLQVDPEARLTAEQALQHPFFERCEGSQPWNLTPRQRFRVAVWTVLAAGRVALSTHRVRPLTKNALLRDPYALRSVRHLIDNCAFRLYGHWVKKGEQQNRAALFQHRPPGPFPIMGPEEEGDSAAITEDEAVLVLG

NEK4 (human) = NEK4 (human) (UniProt P51957)
CSF1R (human) = CSF1R (human) (UniProt P07333)
CSF1R (human), sequence (P07333 whole entry, looked up): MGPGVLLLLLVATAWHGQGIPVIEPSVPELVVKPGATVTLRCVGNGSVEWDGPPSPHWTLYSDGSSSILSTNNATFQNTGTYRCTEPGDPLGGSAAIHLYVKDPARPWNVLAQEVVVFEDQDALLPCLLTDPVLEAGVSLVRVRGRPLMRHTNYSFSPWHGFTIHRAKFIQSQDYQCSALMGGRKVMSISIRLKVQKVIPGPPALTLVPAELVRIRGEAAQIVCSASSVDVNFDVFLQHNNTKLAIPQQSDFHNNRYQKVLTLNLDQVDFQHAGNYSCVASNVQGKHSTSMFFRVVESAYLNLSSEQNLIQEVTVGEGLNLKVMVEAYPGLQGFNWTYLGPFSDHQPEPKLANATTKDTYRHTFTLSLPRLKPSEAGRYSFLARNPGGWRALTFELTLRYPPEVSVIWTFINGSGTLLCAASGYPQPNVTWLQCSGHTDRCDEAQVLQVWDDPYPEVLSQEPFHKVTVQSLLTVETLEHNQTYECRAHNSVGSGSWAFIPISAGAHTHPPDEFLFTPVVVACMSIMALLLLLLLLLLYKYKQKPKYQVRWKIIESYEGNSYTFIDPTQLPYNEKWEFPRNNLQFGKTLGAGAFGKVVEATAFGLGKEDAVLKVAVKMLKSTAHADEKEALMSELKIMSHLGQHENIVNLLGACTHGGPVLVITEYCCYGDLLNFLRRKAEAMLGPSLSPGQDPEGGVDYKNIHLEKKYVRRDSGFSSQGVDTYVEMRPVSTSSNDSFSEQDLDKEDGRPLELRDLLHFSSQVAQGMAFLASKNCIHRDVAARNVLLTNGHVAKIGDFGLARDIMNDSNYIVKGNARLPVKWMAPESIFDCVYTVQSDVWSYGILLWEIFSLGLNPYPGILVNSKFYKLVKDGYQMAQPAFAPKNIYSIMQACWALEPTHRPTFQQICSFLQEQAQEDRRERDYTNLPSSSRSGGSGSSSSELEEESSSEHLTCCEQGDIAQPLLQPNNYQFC

HCK (human) = HCK (human) (UniProt P08631)

AURKB (human), sequence (Q96GD4 whole entry, looked up): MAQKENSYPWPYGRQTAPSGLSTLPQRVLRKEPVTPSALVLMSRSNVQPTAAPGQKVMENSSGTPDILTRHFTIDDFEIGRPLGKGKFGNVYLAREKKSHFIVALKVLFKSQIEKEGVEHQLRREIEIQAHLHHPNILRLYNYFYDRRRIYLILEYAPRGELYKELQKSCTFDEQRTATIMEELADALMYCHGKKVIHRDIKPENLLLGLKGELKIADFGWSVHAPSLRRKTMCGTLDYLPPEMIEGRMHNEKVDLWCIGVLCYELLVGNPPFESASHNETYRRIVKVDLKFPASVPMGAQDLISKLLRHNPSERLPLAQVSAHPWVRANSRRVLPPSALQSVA

Compound: COc1ccc(COc2ccc(Cc3cnc(N)nc3N)cc2OC)cc1
residual activity (SRPK1 (human)): 90.4%
residual activity (NUAK1 (human)): 106%
residual activity (AURKB (human)): 104%
residual activity (CAMK2G (human)): 94.4%
residual activity (MAPKAPK5 (human)): 87.5%
residual activity (PTK2 (human)): 95.5%
residual activity (JAK2 JH1 JH2 (human)): 89.2%
residual activity (EPHA4 (human)): 105%
residual activity (HIPK2 (human)): 103%
residual activity (INSRR (human)): 99.4%
residual activity (MAPK12 (human)): 102%
residual activity (ITK (human)): 98.1%
residual activity (MAPKAPK3 (human)): 96%
residual activity (STK10 (human)): 100%
residual activity (ERBB4 (human)): 110%
residual activity (DYRK3 (human)): 108%
residual activity (AXL (human)): 96.4%
residual activity (CDK7 CCNH MNAT1 (human)): 100%
residual activity (CSNK1G1 (human)): 92.7%
residual activity (MAP2K2 (human)): 101%
residual activity (WNK3 (human)): 100%
residual activity (PRKCE (human)): 95.7%
residual activity (EPHB4 (human)): 90.5%
residual activity (SGK3 (human)): 105%
residual activity (MAPK3 (human)): 99.1%
residual activity (AKT2 (human)): 102%
residual activity (PDPK1 (human)): 89.4%
residual activity (PASK (human)): 103%
residual activity (NUAK2 (human)): 98.1%
residual activity (PTK2B (human)): 86.1%
residual activity (PRKACA (human)): 104%
residual activity (PKN1 (human)): 101%
residual activity (PKN2 (human)): 90.9%
residual activity (PDGFRA (human)): 99.4%
residual activity (EPHB1 (human)): 103%
residual activity (MERTK (human)): 90.3%
residual activity (MLTK (human)): 97.4%
residual activity (PAK2 (human)): 95.3%
residual activity (PHKG2 (human)): 106%
residual activity (NEK4 (human)): 92.2%

Compound: c1ccc(-c2n[nH]cc2-c2ccnc3ccccc23)nc1
residual activity (SRPK1 (human)): 98.4%
residual activity (NUAK1 (human)): 95.5%
residual activity (AURKB (human)): 96%
residual activity (CAMK2G (human)): 85.9%
residual activity (MAPKAPK5 (human)): 95.6%
residual activity (PTK2 (human)): 99.3%
residual activity (JAK2 JH1 JH2 (human)): 107%
residual activity (EPHA4 (human)): 98%
residual activity (HIPK2 (human)): 91.3%
residual activity (INSRR (human)): 101%
residual activity (MAPK12 (human)): 106%
residual activity (ITK (human)): 102%
residual activity (MAPKAPK3 (human)): 92.9%
residual activity (STK10 (human)): 90.1%
residual activity (ERBB4 (human)): 85.7%
residual activity (DYRK3 (human)): 104%
residual activity (AXL (human)): 101%
residual activity (CDK7 CCNH MNAT1 (human)): 104%
residual activity (CSNK1G1 (human)): 92.2%
residual activity (MAP2K2 (human)): 106%
residual activity (PRKCE (human)): 101%
residual activity (EPHB4 (human)): 89.1%
residual activity (SGK3 (human)): 97.4%
residual activity (MAPK3 (human)): 101%
residual activity (AKT2 (human)): 93%
residual activity (PDPK1 (human)): 93.8%
residual activity (PASK (human)): 77.1%
residual activity (NUAK2 (human)): 135%
residual activity (PTK2B (human)): 96.1%
residual activity (PRKACA (human)): 107%
residual activity (CSF1R (human)): 95.5%
residual activity (PKN1 (human)): 100%
residual activity (PKN2 (human)): 91.4%
residual activity (PDGFRA (human)): 98.1%
residual activity (HCK (human)): 98.5%
residual activity (EPHB1 (human)): 98.7%
residual activity (MERTK (human)): 92.6%
residual activity (MLTK (human)): 78%
residual activity (PAK2 (human)): 57%
residual activity (PHKG2 (human)): 97.7%
residual activity (NEK4 (human)): 95.8%

Compound: CC(=O)c1ccc(N2CCOCC2)cc1O
residual activity (SRPK1 (human)): 90.7%
residual activity (NUAK1 (human)): 92.8%
residual activity (AURKB (human)): 91.4%
residual activity (CAMK2G (human)): 90.2%
residual activity (MAPKAPK5 (human)): 96.9%
residual activity (PTK2 (human)): 107%
residual activity (JAK2 JH1 JH2 (human)): 93.6%
residual activity (EPHA4 (human)): 101%
residual activity (HIPK2 (human)): 106%
residual activity (INSRR (human)): 96.7%
residual activity (MAPK12 (human)): 78.7%
residual activity (ITK (human)): 97%
residual activity (MAPKAPK3 (human)): 105%
residual activity (STK10 (human)): 101%
residual activity (ERBB4 (human)): 107%
residual activity (DYRK3 (human)): 93.9%
residual activity (AXL (human)): 96.3%
residual activity (CDK7 CCNH MNAT1 (human)): 105%
residual activity (CSNK1G1 (human)): 91.8%
residual activity (MAP2K2 (human)): 99.8%
residual activity (PRKCE (human)): 93.4%
residual activity (EPHB4 (human)): 97.6%
residual activity (SGK3 (human)): 105%
residual activity (MAPK3 (human)): 103%
residual activity (AKT2 (human)): 96.2%
residual activity (PDPK1 (human)): 111%
residual activity (PASK (human)): 95%
residual activity (NUAK2 (human)): 104%
residual activity (PTK2B (human)): 102%
residual activity (PRKACA (human)): 102%
residual activity (CSF1R (human)): 100%
residual activity (PKN1 (human)): 108%
residual activity (PKN2 (human)): 94.8%
residual activity (PDGFRA (human)): 94.7%
residual activity (HCK (human)): 116%
residual activity (EPHB1 (human)): 103%
residual activity (MERTK (human)): 101%
residual activity (MLTK (human)): 97.8%
residual activity (PAK2 (human)): 98.8%
residual activity (PHKG2 (human)): 98.1%
residual activity (NEK4 (human)): 103%

Compound: CNC(=O)c1cc(Oc2ccc(NC(=O)Nc3ccc(Cl)c(C(F)(F)F)c3)cc2)ccn1
residual activity (SRPK1 (human)): 98.6%
residual activity (NUAK1 (human)): 103%
residual activity (CAMK2G (human)): 108%
residual activity (MAPKAPK5 (human)): 95.8%
residual activity (PTK2 (human)): 102%
residual activity (JAK2 JH1 JH2 (human)): 98.2%
residual activity (EPHA4 (human)): 92.5%
residual activity (INSRR (human)): 104%
residual activity (MAPK12 (human)): 94.2%
residual activity (ITK (human)): 106%
residual activity (MAPKAPK3 (human)): 100%
residual activity (STK10 (human)): 72.4%
residual activity (ERBB4 (human)): 94.8%
residual activity (DYRK3 (human)): 92.7%
residual activity (AXL (human)): 105%
residual activity (CDK7 CCNH MNAT1 (human)): 102%
residual activity (CSNK1G1 (human)): 102%
residual activity (MAP2K2 (human)): 89.7%
residual activity (WNK3 (human)): 99.2%
residual activity (PRKCE (human)): 96.4%
residual activity (SGK3 (human)): 101%
residual activity (MAPK3 (human)): 105%
residual activity (AKT2 (human)): 103%
residual activity (PDPK1 (human)): 95.8%
residual activity (PASK (human)): 99.5%
residual activity (NUAK2 (human)): 101%
residual activity (PTK2B (human)): 101%
residual activity (PRKACA (human)): 92.6%
residual activity (PKN1 (human)): 106%
residual activity (PKN2 (human)): 94.2%
residual activity (PDGFRA (human)): 7.77%
residual activity (HCK (human)): 90.3%
residual activity (EPHB1 (human)): 102%
residual activity (MERTK (human)): 88.2%
residual activity (MLTK (human)): 16.7%
residual activity (PAK2 (human)): 101%
residual activity (PHKG2 (human)): 91.3%
residual activity (NEK4 (human)): 99.5%

residual activity (SRPK1 (human)): 77.3%
residual activity (NUAK1 (human)): 15.9%
residual activity (AURKB (human)): 19.2%
residual activity (CAMK2G (human)): 119%
residual activity (MAPKAPK5 (human)): 77.6%
residual activity (PTK2 (human)): 96.8%
residual activity (JAK2 JH1 JH2 (human)): 40.6%
residual activity (EPHA4 (human)): 80.7%
residual activity (HIPK2 (human)): 105%
residual activity (INSRR (human)): 93%
residual activity (MAPK12 (human)): 99.8%
residual activity (ITK (human)): 87.4%
residual activity (MAPKAPK3 (human)): 96.9%
residual activity (STK10 (human)): 9.05%
residual activity (ERBB4 (human)): 105%
residual activity (AXL (human)): 66.5%
residual activity (CDK7 CCNH MNAT1 (human)): 59.7%
residual activity (CSNK1G1 (human)): 104%
residual activity (MAP2K2 (human)): 99.5%
residual activity (PRKCE (human)): 99.1%
residual activity (EPHB4 (human)): 95.4%
residual activity (SGK3 (human)): 101%
residual activity (MAPK3 (human)): 106%
residual activity (AKT2 (human)): 102%
residual activity (PDPK1 (human)): 114%
residual activity (PASK (human)): 106%
residual activity (NUAK2 (human)): 61.9%
residual activity (PTK2B (human)): 57.7%
residual activity (PRKACA (human)): 100%
residual activity (CSF1R (human)): 64.9%
residual activity (PKN1 (human)): 86.4%
residual activity (PKN2 (human)): 85.4%
residual activity (PDGFRA (human)): 72.8%
residual activity (HCK (human)): 63.5%
residual activity (EPHB1 (human)): 84.5%
residual activity (MERTK (human)): 21.4%
residual activity (MLTK (human)): 97.4%
residual activity (PAK2 (human)): 96.2%
residual activity (PHKG2 (human)): 96%
residual activity (NEK4 (human)): 79.7%
Compound: Cc1[nH]c(/C=C2\C(=O)Nc3ccc(S(=O)(=O)N(C)c4cccc(Cl)c4)cc32)c(C)c1C(=O)N1CCN(C)CC1
